{
  "source": "patent US10927350B2",
  "about": "“Methods for generating stem cell-derived beta cells and uses thereof” (President and Fellows of Harvard College, priority 2014, dated 2021)",
  "test_system": "endocrine progenitor cells directed to differentiate into SC-β cells",
  "experiment": "Stimulation index (glucose stimulated insulin secretion) of SC-β cells generated from endocrine progenitor cells in the presence of a JNK inhibitor",
  "format": "cell-based, human",
  "details": "Stimulation index=[insulin@20 mM glucose]/[insulin@2 mM glucose]; Relative Stim Index=Stim Index/Stim Index of Control; versus SC-β cells generated in the absence of the JNK inhibitor; inhibitor added to Step 6 (FIG. 1, FIG. 2C)",
  "method": "Stimulation index=[insulin@20 mM glucose]/[insulin@2 mM glucose]. Relative Stim Index=Stim Index/Stim Index of Control.\nFIG. 2C is a schematic illustrating an exemplary method for generating SC-β cells by adding a JNK inhibitor to Step 6 of the exemplary protocol shown in FIG. 2B.\nThe methods of the present invention contemplate contacting cells (e.g., endocrine progenitor cells or precursors thereof) with effective amounts of one or more agents that decrease the level and/or activity of JNK. An “effective amount” of an agent (or composition containing such agent) refers to the amount sufficient to achieve a desired effect, e.g., when delivered to a cell or subject according to a selected administration form, route, and/or schedule. As will be appreciated by those of ordinary skill in this art, the absolute amount of a particular agent or composition that is effective may vary depending on such factors as the desired biological or pharmacological endpoint, the agent to be delivered, the target tissue, etc. Those of ordinary skill in the art will further understand that an “effective amount” may be contacted with cells or administered in a single dose, or the desired effect may be achieved by use of multiple doses. An effective amount of a composition may be an amount sufficient to reduce the severity of or prevent one or more symptoms or signs of a disorder (e.g., diabetes). […]",
  "data": [
    {"smiles": "O=C1c2ccccc2-c2n[nH]c3cccc1c23", "note": "[SP600125, Anthra[1,9-cd]pyrazol-6(2H)-on]", "values": [
      {"measurement": "Relative stimulation index of generated SC-β cells", "value": "greater stimulation index"}
    ]}
  ]
}
